Results published in patent publication US7163589B2 (priority 2001, dated 2007).

Tested on: Mouse immunoglobulin (IgG)

COC(F)(F)C(F)(F)C(F)(F)C(F)(F)F [HFE-7100, methyl nonafluorobutyl ether]
Effect on protein conformation (denaturation): changes the conformation of the proteins
